Residues, ends and D or L forms follow the SMILES beside them.
What was measured:
[1] = test system: A549 human epithelial cells; assay: LPS induced IL-8 production in A549 cells (ELISA); assay type: cell-based; details: 100 ng/ml E. coli O111:B4 LPS, 24 hours
A549 epithelial cells = assay: Human Operon arrays (PRHU04-S1) of A549 cells treated with peptide alone (Tables 31-37, 53); details: peptide 50 μg/ml, 4 h, A549 cells

For CC[C@H](C)[C@H](N)C(=O)N[C@@H](CC(C)C)C(=O)N1CCC[C@H]1C(=O)N[C@@H](Cc1c[nH]c2ccccc12)C(=O)N[C@@H](CCCCN)C(=O)N[C@@H](Cc1c[nH]c2ccccc12)C(=O)N1CCC[C@H]1C(=O)N[C@@H](Cc1c[nH]c2ccccc12)C(=O)N[C@@H](Cc1c[nH]c2ccccc12)C(=O)N1CCC[C@H]1C(=O)N[C@@H](Cc1c[nH]c2ccccc12)C(=O)N[C@@H](CCCNC(=N)N)C(=O)N[C@@H](CCCNC(=N)N)C(N)=O [SEQ ID NO: 2], the “Inhibition of IL-8” value ([1]; SEQ ID NO: 2 0.1 μg/ml) was 6.8 ± 9.6%, the “Inhibition of IL-8” value ([1]; SEQ ID NO: 2 1 μg/ml) was 12.8 ± 24.5% and the “Inhibition of IL-8” value ([1]; SEQ ID NO: 2 10 μg/ml) was 29.0 ± 26.0%. The “Inhibition of IL-8” value ([1]; SEQ ID NO: 2 50 μg/ml) was 39.8 ± 1.6% and the “Inhibition of IL-8” value ([1]; SEQ ID NO: 2 100 μg/ml) was 45.0 ± 3.5%.

In the case of CSCC[C@H](NC(=O)[C@H](CO)NC(=O)[C@@H](NC(=O)[C@H](CCCCN)NC(=O)[C@H](Cc1ccccc1)NC(=O)[C@H](CS)NC(=O)[C@H](CO)NC(=O)[C@H](CCCNC(=N)N)NC(=O)[C@@H](N)CCCCN)C(C)C)C(=O)N[C@@H](CCCNC(=N)N)C(=O)NCC(=O)N[C@H](C(=O)N[C@@H](CO)C(=O)N[C@@H](CCCNC(=N)N)C(=O)N[C@@H](CCCNC(=N)N)C(=O)N[C@@H](CCCNC(=N)N)C(=O)N[C@@H](CS)C(=O)N[C@@H](CCCCN)C(=O)O)C(C)C [SEQ ID NO: 27] (H-KRSCFKVSMRGVSRRRCK-OH; N-terminus and C-terminus assumed), the “ID#:ctrl expression ratio, AB002359 phosphoribosyl formylglycina midine synthase” value (A549 epithelial cells) was 2.7, the “ID#:ctrl expression ratio, AB006537 IL-1R accessory protein” value (A549 epithelial cells) was 7.0 and the “ID#:ctrl expression ratio, AB011124 KIAA0552 gene product” value (A549 epithelial cells) was 72.0. The “ID#:ctrl expression ratio, AB014536 copine III” value (A549 epithelial cells) was 9.5, the “ID#:ctrl expression ratio, AB018285 KIAA0742 protein” value (A549 epithelial cells) was 13.9 and the “ID#:ctrl expression ratio, AB020659 KIAA0852 protein” value (A549 epithelial cells) was 7.6. For the same molecule, the “ID#:ctrl expression ratio, AC004774 distal-less homeo box 5” value (A549 epithelial cells) was 6.3, the “ID#:ctrl expression ratio, AC005154 unkown” value (A549 epithelial cells) was 7.2 and the “ID#:ctrl expression ratio, AF000237 1-acylglycerol-3-phosphate O-acyltransferase 2” value (A549 epithelial cells) was 2.5. For the same molecule, the “ID#:ctrl expression ratio, AF012086 RAN binding protein 2-like 1” value (A549 epithelial cells) was 4.0, the “ID#:ctrl expression ratio, AF030555 fatty-acid-Coenzyme A ligase_long-chain 4” value (A549 epithelial cells) was 2.2 and the “ID#:ctrl expression ratio, AF035309 proteasome 26S subunit ATPase 5” value (A549 epithelial cells) was 6.6. For the same molecule, the “ID#:ctrl expression ratio, AF038664 UDP-Gal:beta GlcNAc beta 1_4-galactosyltransferase” value (A549 epithelial cells) was 22.2, the “ID#:ctrl expression ratio, AF042378 spindle pole body protein” value (A549 epithelial cells) was 3.0 and the “ID#:ctrl expression ratio, AF052138 unknown” value (A549 epithelial cells) was 2.8. The “ID#:ctrl expression ratio, AF052183 unknown” value (A549 epithelial cells) was 3.7, the “ID#:ctrl expression ratio, AF071510 lecithin retinol acyltransferase” value (A549 epithelial cells) was 10.3 and the “ID#:ctrl expression ratio, AF074723 RNA polymerase II transcriptional regulation mediator” value (A549 epithelial cells) was 3.2. The “ID#:ctrl expression ratio, AF080579 Homo sapiens integral membrane protein” value (A549 epithelial cells) was 3.0, the “ID#:ctrl expression ratio, AF088868 fibrousheathin II” value (A549 epithelial cells) was 10.0 and the “ID#:ctrl expression ratio, AF093265 Homer neuronal immediate early gene_3” value (A549 epithelial cells) was 13.3. The “ID#:ctrl expression ratio, AF124735 LIM HOX gene 2” value (A549 epithelial cells) was 4.4, the “ID#:ctrl expression ratio, AF131831 unknown” value (A549 epithelial cells) was 7.0 and the “ID#:ctrl expression ratio, AF151043 hypothetical protein” value (A549 epithelial cells) was 2.2. The “ID#:ctrl expression ratio, AF251040 putative nuclear protein” value (A549 epithelial cells) was 3.4, the “ID#:ctrl expression ratio, AJ005273 antigenic determinant of recA protein” value (A549 epithelial cells) was 11.1 and the “ID#:ctrl expression ratio, AK000161 hypothetical protein” value (A549 epithelial cells) was 8.7. For the same molecule, the “ID#:ctrl expression ratio, AK000227 hypothetical protein” value (A549 epithelial cells) was 7.1, the “ID#:ctrl expression ratio, AK000541 hypothetical protein” value (A549 epithelial cells) was 13.9 and the “ID#:ctrl expression ratio, AK000576 hypothetical protein” value (A549 epithelial cells) was 9.3. The “ID#:ctrl expression ratio, AK001075 hypothetical protein” value (A549 epithelial cells) was 2.6, the “ID#:ctrl expression ratio, AK001135 Sec23-interacting protein p125” value (A549 epithelial cells) was 4.5 and the “ID#:ctrl expression ratio, AK001154 hypothetical protein” value (A549 epithelial cells) was 4.4. For the same molecule, the “ID#:ctrl expression ratio, AK001890 unknown” value (A549 epithelial cells) was 3.5, the “ID#:ctrl expression ratio, AL024493 unknown” value (A549 epithelial cells) was 13.5 and the “ID#:ctrl expression ratio, AL031121 unknown” value (A549 epithelial cells) was 3.7. The “ID#:ctrl expression ratio, AL031588 hypothetical protein” value (A549 epithelial cells) was 20.2, the “ID#:ctrl expression ratio, AL035562 paired box gene 1” value (A549 epithelial cells) was 81.9 and the “ID#:ctrl expression ratio, AL080077 unknown” value (A549 epithelial cells) was 2.0. The “ID#:ctrl expression ratio, AL096803 unknown” value (A549 epithelial cells) was 18.3, the “ID#:ctrl expression ratio, AL110125 unknown” value (A549 epithelial cells) was 2.7 and the “ID#:ctrl expression ratio, AL133051 unknown” value (A549 epithelial cells) was 6.3. The “ID#:ctrl expression ratio, AL133605 unknown” value (A549 epithelial cells) was 4.2, the “ID#:ctrl expression ratio, AL137268 KIAA0759 protein” value (A549 epithelial cells) was 2.3 and the “ID#:ctrl expression ratio, AL137461 unknown” value (A549 epithelial cells) was 9.0. For the same molecule, the “ID#:ctrl expression ratio, AL137540 unknown” value (A549 epithelial cells) was 2.6, the “ID#:ctrl expression ratio, AL137577 unknown” value (A549 epithelial cells) was 6.2 and the “ID#:ctrl expression ratio, AL137718 unknown” value (A549 epithelial cells) was 8.0. The “ID#:ctrl expression ratio, D00760 proteasome subunit_alpha type_2” value (A549 epithelial cells) was 2.6, the “ID#:ctrl expression ratio, D12676 CD36 antigen” value (A549 epithelial cells) was 3.4 and the “ID#:ctrl expression ratio, D31891 SET domain_bifurcated_1” value (A549 epithelial cells) was 6.0. The “ID#:ctrl expression ratio, D42053 site-1 protease” value (A549 epithelial cells) was 7.1, the “ID#:ctrl expression ratio, D50405 histone deacetylase 1” value (A549 epithelial cells) was 7.2 and the “ID#:ctrl expression ratio, D80000 Segregation of mitotic chromosomes 1” value (A549 epithelial cells) was 2.5. The “ID#:ctrl expression ratio, D87120 osteoblast protein” value (A549 epithelial cells) was 2.0, the “ID#:ctrl expression ratio, J03068 N-acylaminoacyl-peptide hydrolase” value (A549 epithelial cells) was 5.0 and the “ID#:ctrl expression ratio, L34587 transcription elongation factor B” value (A549 epithelial cells) was 16.3. For the same molecule, the “ID#:ctrl expression ratio, M34175 adaptor-related protein complex 2 beta 1 subunit” value (A549 epithelial cells) was 3.1, the “ID#:ctrl expression ratio, M81933 cell division cycle 25A” value (A549 epithelial cells) was 3.1 and the “ID#:ctrl expression ratio, M97925 defensin alpha 5_Paneth cell-specific” value (A549 epithelial cells) was 35.9. For the same molecule, the “ID#:ctrl expression ratio, NM_004732 potassium voltage-gated channel” value (A549 epithelial cells) was 4.0, the “ID#:ctrl expression ratio, NM_004862 LPS-induced TNF-alpha factor” value (A549 epithelial cells) was 4.8 and the “ID#:ctrl expression ratio, NM_006963 zinc finger protein 22” value (A549 epithelial cells) was 7.6. The “ID#:ctrl expression ratio, NM_013329 GC-rich sequence DNA-binding factor candidate” value (A549 epithelial cells) was 14.3, the “ID#:ctrl expression ratio, NM_013393 cell division protein FtsJ” value (A549 epithelial cells) was 5.8 and the “ID#:ctrl expression ratio, NM_014366 putative nucleotide binding protein_estradiol-induced” value (A549 epithelial cells) was 4.3. The “ID#:ctrl expression ratio, NM_016015 CGI-68 protein” value (A549 epithelial cells) was 2.3, the “ID#:ctrl expression ratio, S49953 DNA-binding transcriptional activator” value (A549 epithelial cells) was 4.0 and the “ID#:ctrl expression ratio, S57296 HER2/neu receptor” value (A549 epithelial cells) was 12.1. For the same molecule, the “ID#:ctrl expression ratio, U00115 zinc finger protein 51” value (A549 epithelial cells) was 2.2, the “ID#:ctrl expression ratio, U13666 G protein-coupled receptor 1” value (A549 epithelial cells) was 5.4 and the “ID#:ctrl expression ratio, U33547 MHC class II antigen HLA-DRB6 mRNA” value (A549 epithelial cells) was 5.3. The “ID#:ctrl expression ratio, U67156 mitogen-activated protein kinase kinase kinase 5” value (A549 epithelial cells) was 3.0, the “ID#:ctrl expression ratio, U68018 MAD homolog 2” value (A549 epithelial cells) was 2.2 and the “ID#:ctrl expression ratio, U71092 G protein-coupled receptor 24” value (A549 epithelial cells) was 9.1. The “ID#:ctrl expression ratio, U78305 protein phosphatase 1D” value (A549 epithelial cells) was 13.0, the “ID#:ctrl expression ratio, U88528 cAMP responsive element binding protein” value (A549 epithelial cells) was 5.4 and the “ID#:ctrl expression ratio, U88666 SFRS protein kinase 2” value (A549 epithelial cells) was 5.9. For the same molecule, the “ID#:ctrl expression ratio, X59770 IL-1R type II” value (A549 epithelial cells) was 4.7, the “ID#:ctrl expression ratio, X62744 MHC class II DM alpha” value (A549 epithelial cells) was 4.7 and the “ID#:ctrl expression ratio, X63563 polymerase II polypeptide B” value (A549 epithelial cells) was 8.1. For the same molecule, the “ID#:ctrl expression ratio, X89399 RAS p21 protein activator” value (A549 epithelial cells) was 14.9.

From patent publication US20070134261A1, “Effectors of innate immunity” (priority 2001, published 2007)
